Laboratory results reported in patent US8853437B2, “Anti-inflammatory compounds” (The University of Tokyo, priority 2009, dated 2014).

What was measured:
[1] = tested on: infiltration of neutrophil; assay: zymosan peritonitis model; type: in vivo, mouse C57BL/6J; settings: for suppressing effect for other cell group (macrophage etc.): 10 ng (FIG. 4C); for neutrophil suppressing activity compared with dexamethasone: 10 ng compound versus 10 μg dexamethasone (FIG. 4A, 4C); for dose dependence of activity in peritonitis model: Example 4, 1 ng or 10 ng/mouse (FIG. 4A(b), 4D); for activities of suppressing infiltration of neutrophil at an inflammation initial stage: low dose of 10 ng (FIG. 4C)
Protocol: For an inflammation model, zymosan peritonitis elicited by intraperitoneally administering zymosan being a cell wall component of yeast was used. Since an exudate in an abdominal cavity can be recovered, the present model is a model suitable for analyzing cytokines and eicosanoids.
Zymosan A (Wako Pure Chemical Industries, Ltd.) was suspended in a physiological saline to 1 mg/mL, and the suspension was warmed at 37° C. for 30 minutes. Thereafter, this zymosan A solution was vortexed, and returned to room temperature. The compound synthesized in the previous Example, 17,18-diHEPE was taken into a 1.5 mL tube, and a solvent was vaporized with nitrogen to complete dryness and, thereafter, a physiological saline was added to dissolve it. Then, 100 μL of this compound solution was injected (1 ng or 10 ng/mouse) through a tail vein of C57BL/6J mouse (7 weeks old, mail: CLEA Japan, Inc.). As a control, a group in which only a physiological saline was injected, and a group in which dexamethasone (10 μg/mouse) being an anti-inflammatory steroid was injected, were used. After about 2 minutes, 1 mL of a zymosan A solution was intraperitoneally administered. After 2 hours, cells exuded into an abdominal cavity were recovered into a tube with a PBS, and the cell number was counted. Thereafter, this tube was centrifuged at 1200 rpm and 4° C. for 5 minutes to remove the supernatant, a precipitate (pellet) was suspended in PBS, and a population was analyzed by three-color staining of FACS.
Abdominal cavity cells were adjusted to 2.5×10^6 cells/mL, and 200 μL was placed into a 5 mL round-bottom tube (BDFalcon) (5×10^5 cells/tube). To this tube was added an anti-mouse CD16/CD32 antibody (0.5 mg/mL; BDBiosciences) at 1 μL per tube, and this was incubated at room temperature for 10 minutes. To this tube was added a staining antibody mix (prepared by diluting 1.0 μL of FITC bound anti-mouse F4/80 antibody (0.5 mg/mL; eBiosciences), 0.5 μL of PE bound anti-mouse Ly-6G & Ly-6C antibody (0.2 mg/mL; eBiosciences) and 0.5 μL of PerCP-Cy5.5 bound anti-mouse CD11b antibody (0.2 mg/mL; eBiosciences) in 50 μL of PBS, per sample) at 50 μL/tube, and this was incubated at room temperature for 15 minutes under light shielding. Measurement was performed by FACS Calibur (BDBiosciences). […]

[2] = tested on: neutrophil which have infiltrated into lung; assay: acute lung damage model (intrabronchial hydrochloric acid); type: in vivo, mouse C57BL/6J; settings: 10 ng via tail vein; BAL 12 hours after hydrochloric acid (FIG. 4E)
Protocol: One hundred μL of a compound 17,18-diHEPE dissolved in a physiological saline was injected through a tail vein of a C57BL/6J mouse (7 weeks old, male; CLEA Japan, Inc.). After 15 minutes, this mouse was anesthetized by intraperitoneally administering a mixed solution of ketamine (Daiichi Sankyo Propharma) and xylazine (Bayer Medical Ltd.), a trachea was exposed, and 25 μL of hydrochloric acid (pH 1.0, 0.1 N; SIGMA) was administered into a left bronchium. As a control, a group in which only a physiological saline was injected and, after anesthesia, hydrochloric acid was administered into a left bronchium (saline/HCl), and a non-treated group (intact) were used. After 12 hours, this mouse was slaughtered, and bronchial alveolus washing (BAL) was performed with 0.7 mL of PBS two times. The cell number in the BAL solution was counted and a population of cells was quantitated by simple Giemsa staining using a simple Giemsa staining solution Diffquick (Sysmex Corporation).

| SMILES | suppressing effect for other cell group (macrophage etc.) [1] | neutrophil suppressing activity compared with dexamethasone [1] | dose dependence of activity in peritonitis model [1] | activities of suppressing infiltration of neutrophil at an inflammation initial stage [1] | suppression of infiltration of neutrophil ([1]; 10 ng/mouse via tail vein, abdominal cavity cells recovered 2 hours after zymosan, FACS (FIG. 4A)) | IC40 (dose versus decrease in the neutrophil number) ([1]; calculated from graph FIG. 4F) | neutrophil-specific infiltration suppressing activity [2] |
| --- | --- | --- | --- | --- | --- | --- | --- |
| CCC(O)C(O)/C=C/C=C/C=C\C/C=C\C/C=C\CCCC(=O)O (single isomer, unassigned) [peak 5, 17,18-diHEPE] | not recognized | equivalent to 10 μg of dexamethasone | dose-dependent | recognized |  |  |  |
| CCC(O)C(O)/C=C/C=C/C=C\C/C=C\C/C=C\CCCC(=O)O (centres unmarked) [17,18-diHEPE, 17,18-dihydroxyeicosapentaenoic acid] |  |  |  |  | about 40% | approximately 8 ng |  |
| CCC(O)C(O)/C=C/C=C/C=C\C/C=C\C/C=C\CCCC(=O)O (single isomer, unassigned) [peak 6, 17,18-diHEPE] | not recognized | equivalent to 10 μg of dexamethasone | dose-dependent | recognized |  |  | recognized |
